Tests used:
CCRF-CEM = assay: Cytotoxicity against human CCRF-CEM cells assessed as cell growth at 10^-5 M after 48 hrs by sulforhodamine B assay; assay type: functional; conditions: read-out: Activity
[1] = Cytotoxicity against human RPMI8226 cells assessed as cell growth at 10^-5 M after 48 hrs by sulforhodamine B assay; assay type: functional; conditions: RPMI-8226, 48 h, read-out: Activity
[2] = Cytotoxicity against human HOP92 cells assessed as cell growth at 10^-5 M after 48 hrs by sulforhodamine B assay; assay type: functional; conditions: HOP-92, 48 h, read-out: Activity
NCI-H23 = assay: Cytotoxicity against human NCI-H23 cells assessed as cell growth at 10^-5 M after 48 hrs by sulforhodamine B assay; assay type: functional; conditions: NCI-H23, 48 h, read-out: Activity
NCI-H522 = assay: Cytotoxicity against human NCI-H522 cells assessed as cell growth at 10^-5 M after 48 hrs by sulforhodamine B assay; assay type: functional; conditions: NCI-H522, 48 h, read-out: Activity
[3] = Cytotoxicity against human HCT116 cells assessed as cell growth at 10^-5 M after 48 hrs by sulforhodamine B assay; assay type: functional; conditions: HCT-116, 48 h, read-out: Activity
KM12 [4] = assay: Cytotoxicity against human KM12 cells assessed as cell growth at 10^-5 M after 48 hrs by sulforhodamine B assay; assay type: functional; conditions: KM12, 48 h, read-out: Activity
[5] = Cytotoxicity against human SNB75 cells assessed as cell growth at 10^-5 M after 48 hrs by sulforhodamine B assay; assay type: functional; conditions: SNB-75, 48 h, read-out: Activity
[6] = Cytotoxicity against human LOXIMVI cells assessed as cell growth at 10^-5 M after 48 hrs by sulforhodamine B assay; assay type: functional; conditions: LOX IMVI, read-out: Activity
Malme-3M = assay: Cytotoxicity against human MALME-3M cells assessed as cell growth at 10^-5 M after 48 hrs by sulforhodamine B assay; assay type: functional; conditions: read-out: Activity
SK-MEL-5 = assay: Cytotoxicity against human SK-MEL-5 cells assessed as cell growth at 10^-5 M after 48 hrs by sulforhodamine B assay; assay type: functional; conditions: SK-MEL-5, 48 h, read-out: Activity
[7] = Cytotoxicity against human UACC62 cells assessed as cell growth at 10^-5 M after 48 hrs by sulforhodamine B assay; assay type: functional; conditions: UACC-62, 48 h, read-out: Activity
[8] = Cytotoxicity against human OVCAR3 cells assessed as cell growth at 10^-5 M after 48 hrs by sulforhodamine B assay; assay type: functional; conditions: OVCAR-3, 48 h, read-out: Activity
[9] = Cytotoxicity against human OVCAR4 cells assessed as cell growth at 10^-5 M after 48 hrs by sulforhodamine B assay; assay type: functional; conditions: OVCAR-4, 48 h, read-out: Activity
[10] = Cytotoxicity against human OVCAR8 cells assessed as cell growth at 10^-5 M after 48 hrs by sulforhodamine B assay; assay type: functional; conditions: OVCAR-8, 48 h, read-out: Activity
ACHN [11] = assay: Cytotoxicity against human ACHN cells assessed as cell growth at 10^-5 M after 48 hrs by sulforhodamine B assay; assay type: functional; conditions: read-out: Activity
SN12C = assay: Cytotoxicity against human SN12C cells assessed as cell growth at 10^-5 M after 48 hrs by sulforhodamine B assay; assay type: functional; conditions: read-out: Activity
[12] = Cytotoxicity against human TK10 cells assessed as cell growth at 10^-5 M after 48 hrs by sulforhodamine B assay; assay type: functional; conditions: TK-10, 48 h, read-out: Activity
MCF7 = assay: Cytotoxicity against human MCF7 cells assessed as cell growth at 10^-5 M after 48 hrs by sulforhodamine B assay; assay type: functional; conditions: MCF7, 48 h, read-out: Activity
[13] = Cytotoxicity against human Hs 578T cells assessed as cell growth at 10^-5 M after 48 hrs by sulforhodamine B assay; assay type: functional; conditions: read-out: Activity
T47D [14] = assay: Cytotoxicity against human T47D cells assessed as cell growth at 10^-5 M after 48 hrs by sulforhodamine B assay; assay type: functional; conditions: read-out: Activity
MDA-MB-468 [15] = assay: Cytotoxicity against human MDA-MB-468 cells assessed as cell growth at 10^-5 M after 48 hrs by sulforhodamine B assay; assay type: functional; conditions: MDA-MB-468, 48 h, read-out: Activity
[16] = Cytotoxicity against human NCI-ADR-RES cells after 48 hrs by sulforhodamine B assay; assay type: functional
[17] = Cytotoxicity against human Hs 578T cells after 48 hrs by sulforhodamine B assay; assay type: functional
SR = assay: Cytotoxicity against human SR cells after 48 hrs by sulforhodamine B assay; assay type: functional
cells [18] = conditions: Homo sapiens, UACC-62, 48 h
Description: Cytotoxicity against human UACC62 cells after 48 hrs by sulforhodamine B assay

cells [19] = conditions: Homo sapiens, SK-OV-3, 48 h
Description: Cytotoxicity against human SKOV3 cells after 48 hrs by sulforhodamine B assay

ACHN [20] = assay: cells; conditions: Homo sapiens, 48 h
Description: Cytotoxicity against human ACHN cells after 48 hrs by sulforhodamine B assay

cells [21] = conditions: Homo sapiens, TK-10, 48 h
Description: Cytotoxicity against human TK10 cells after 48 hrs by sulforhodamine B assay

T47D [22] = assay: cells; conditions: Homo sapiens, 48 h
Description: Cytotoxicity against human T47D cells after 48 hrs by sulforhodamine B assay

MDA-MB-468 [23] = assay: cells; conditions: Homo sapiens, MDA-MB-468, 48 h
Description: Cytotoxicity against human MDA-MB-468 cells after 48 hrs by sulforhodamine B assay

K562 = assay: cells; conditions: Homo sapiens, K562, 48 h
Description: Cytotoxicity against human K562 cells after 48 hrs by sulforhodamine B assay

cells [24] = conditions: Homo sapiens, MOLT-4, 48 h
Description: Cytotoxicity against human MOLT4 cells after 48 hrs by sulforhodamine B assay

NCI-H226 = assay: cells; conditions: Homo sapiens, NCI-H226, 48 h
Description: Cytotoxicity against human NCI-H226 cells after 48 hrs by sulforhodamine B assay

NCI-H460 = assay: cells; conditions: Homo sapiens, NCI-H460, 48 h
Description: Cytotoxicity against human NCI-H460 cells after 48 hrs by sulforhodamine B assay

KM12 [25] = assay: cells; conditions: Homo sapiens, KM12, 48 h
Description: Cytotoxicity against human KM12 cells after 48 hrs by sulforhodamine B assay

cells [26] = conditions: Homo sapiens, SNB-75, 48 h
Description: Cytotoxicity against human SNB75 cells after 48 hrs by sulforhodamine B assay

SK-MEL-28 = assay: cells; conditions: Homo sapiens, SK-MEL-28, 48 h
Description: Cytotoxicity against human SK-MEL-28 cells after 48 hrs by sulforhodamine B assay

[27] = read-out: LC50 (the source's name)

CC1=NN(c2cccc(Cl)c2)C(=O)/C1=C\c1cn(CC(O)Cn2cc(/C=C3\C(=O)N(c4cccc(Cl)c4)N=C3C)c3ccccc32)c2ccccc12
growth at 10 µM (CCRF-CEM): 106%
growth at 10 µM [1]: 109%
growth at 10 µM [2]: 122%
growth at 10 µM (NCI-H23): 105%
growth at 10 µM (NCI-H522): 97.6%
growth at 10 µM [3]: 99.3%
growth at 10 µM (KM12 [4]): 100%
growth at 10 µM [5]: 93.4%
growth at 10 µM [6]: 102%
growth at 10 µM (Malme-3M): 89.6%
growth at 10 µM (SK-MEL-5): 101%
growth at 10 µM [7]: 112%
growth at 10 µM [8]: 102%
growth at 10 µM [9]: 103%
growth at 10 µM [10]: 115%
growth at 10 µM (ACHN [11]): 107%
growth at 10 µM (SN12C): 99.7%
growth at 10 µM [12]: 118%
growth at 10 µM (MCF7): 97.9%
growth at 10 µM [13]: 102%
growth at 10 µM (T47D [14]): 88%
growth at 10 µM (MDA-MB-468 [15]): 123%

COc1cc(/C=C2\C(=O)Nc3ccccc32)cc(OC)c1O
growth at 10 µM (CCRF-CEM): 26.7%
GI50 [16]: 2500 nM
TGI [16]: 7.5 µM
CC50 [16, 27]: > 100 µM
GI50 [17]: 1800 nM
TGI [17]: 6.1 µM
CC50 [17, 27]: > 100 µM
growth at 10 µM [1]: 46.6%
growth at 10 µM (NCI-H23): 66.4%
growth at 10 µM (NCI-H522): 8.78%
growth at 10 µM [3]: 46.4%
growth at 10 µM (KM12 [4]): 32.2%
growth at 10 µM [5]: 23.1%
growth at 10 µM [6]: 36.5%
growth at 10 µM (Malme-3M): 118%
growth at 10 µM (SK-MEL-5): 45.7%
growth at 10 µM [7]: 72.1%
growth at 10 µM [8]: 46.9%
growth at 10 µM [9]: 89.1%
growth at 10 µM [10]: 78.5%
growth at 10 µM (ACHN [11]): 77%
growth at 10 µM (SN12C): 77%
growth at 10 µM [12]: 88.5%
growth at 10 µM (MCF7): 30.8%
growth at 10 µM [13]: 18.4%
growth at 10 µM (T47D [14]): 49.6%
growth at 10 µM (MDA-MB-468 [15]): 20.4%
GI50 (SR): 1500 nM
TGI (SR): 16.9 µM
CC50 (SR; [27]): > 100 µM
GI50 (cells [18]): 2600 nM
TGI (cells [18]): 11.2 µM
CC50 (cells [18]; read-out: LC50): 35.4 µM
GI50 (cells [19]): 3.9 µM
TGI (cells [19]): 21.3 µM
CC50 (cells [19]; read-out: LC50): > 100 µM
GI50 (ACHN [20]): 4.7 µM
TGI (ACHN [20]): 22.3 µM
CC50 (ACHN [20]; read-out: LC50): 83.2 µM
GI50 (cells [21]): 7.1 µM
TGI (cells [21]): 37.1 µM
CC50 (cells [21]; read-out: LC50): > 100 µM
GI50 (T47D [22]): 3.5 µM
TGI (T47D [22]): 85.1 µM
CC50 (T47D [22]; read-out: LC50): > 100 µM
GI50 (MDA-MB-468 [23]): 1500 nM
TGI (MDA-MB-468 [23]): 7.7 µM
CC50 (MDA-MB-468 [23]; read-out: LC50): 63.1 µM
GI50 (K562): 2100 nM
TGI (K562): > 100 µM
CC50 (K562; read-out: LC50): > 100 µM
GI50 (cells [24]): 3.8 µM
TGI (cells [24]): 93.3 µM
CC50 (cells [24]; read-out: LC50): > 100 µM
GI50 (NCI-H226): 17.7 µM
TGI (NCI-H226): > 100 µM
CC50 (NCI-H226; read-out: LC50): > 100 µM
GI50 (NCI-H460): 3000 nM
TGI (NCI-H460): 11.7 µM
CC50 (NCI-H460; read-out: LC50): 53.7 µM
GI50 (KM12 [25]): 2500 nM
TGI (KM12 [25]): 11.5 µM
CC50 (KM12 [25]; read-out: LC50): 36.3 µM
GI50 (cells [26]): 11.7 µM
TGI (cells [26]): 8.5 µM
CC50 (cells [26]; read-out: LC50): > 100 µM
GI50 (SK-MEL-28): 5 µM
TGI (SK-MEL-28): 22.9 µM
CC50 (SK-MEL-28; read-out: LC50): 83.2 µM

— ChEMBL document CHEMBL3785084, “Rational modification of the lead molecule: Enhancement in the anticancer and dihydrofolate reductase inhibitory activity” (Bioorg Med Chem Lett, 2016)
